Data: patent US20240182945A1, “PRODUCTS FOR REGULATION OF EUKARYOTIC AND MICROBIAL CELLS GROWTH” (priority 2021, published 2024)

Tests used:
[1] = tested on: Pseudomonas aeruginosa; conditions: cited from earlier work
[2] = tested on: S.aureus (PP) and MM in sputum from children with pneumonia; assay: Degree of eradication of PP and MM on Columbia agar with antibiotic at concentrations achievable at the site of infection; type: cell-based; design: key to Degree of primary pathogen eradication, evaluation of ABEPP: % of primary pathogen (PP) eliminated
Experimental: We next tried to select antibiotics based on building a probability model. Antibiotic efficacy was evaluated based on a novel parameters: • ABEPPMM100—antibiotic concentration that is required for the elimination of 100% “complex” PP+MM. • ABEPPMM99—antibiotic concentration that is required for the elimination of 99% “complex” PP+MM.
ABEPPMM90—antibiotic concentration that is required for the elimination of 90% “complex” PP+MM.
ABEPPMM50—antibiotic concentration that is required for the elimination of 50% “complex” PP+MM.
ABEPP100—antibiotic concentration that affecting on “complex” PP+MM is required for the elimination of 100% PP.
ABEPP99—antibiotic concentration that affecting on “complex” PP+MM is required for the elimination of 99% PP.
ABEPP90—antibiotic concentration that affecting on “complex” PP+MM is required for the elimination of 90% PP.
ABEPP50—antibiotic concentration that affecting on “complex” PP+MM is required for the elimination of 50% PP.
We used sputum from children with pneumonia, with S.aureus as confirmed PP. Patient 1—child • Patient 2—child • Patient 3—child

[3] = 3 h; cited from earlier work
[4] = tested on: bacteria of sputum from patients with lung diseases; assay: Standard antibiotic susceptibility study using the microbroth dilution method (Algorithm #3); type: cell-based; also: key: '+'—presence of bacterial growth, antibiotic ineffective; '−'—absence of bacterial growth, antibiotic effective
Text: Algorithm #3—Standard antibiotic susceptibility study using the microbroth dilution method.

[5] = tested on: bacteria of the biosample (persisters); assay: Neutropenic mice instilled with biosample and treated with antibiotic for 72 h, microbial growth in organs and blood; type: in vivo; conditions: neutropenic C57BL/6 mice treated for 72 h, agar with 100 ug/mL of the antibiotic
Experimental: Next, we confirmed that antibiotics selected with proposed algorithm are effective. Adult C57BL/6 mice were rendered neutropenic by injecting cyclophosphamide subcutaneously 4 days before infection (150 mg/kg of body weight), 1 day before infection (100 mg/kg), and 1 day after infection (100 mg/kg). Mice were anesthetized with 2% isoflurane and orally instilled with biosample (stored at +4 C). Briefly, nares were blocked, and mice aspirated 50 μL of the biosample into the lungs while being held vertically for 60 s.

[6] = tested on: bacteria of sputum from patients with lung diseases; assay: Sputum plated on 24-well plates with antibiotics at Cmax or C0-4 h, Algorithm #1 or #2; type: cell-based; also: key: '+'—presence of bacterial growth, antibiotic ineffective; '−'—absence of bacterial growth, antibiotic effective
Experimental: Pathological material (sputum) from patients with lung diseases was plated into wells of 24-well plates filled with a nutrient medium supplemented with erythrocytes 5%, to which antibiotics were added taken at different concentrations.
Group #1—antibiotics were taken at concentrations close to a maximum (peak) concentration achievable at the site of infection Cmax
Algorithm #1. Lab technician, analyzed the appearance of bacterial growth by comparing the signs of bacterial growth in each well supplemented with antibiotic(s) at certain timepoint, with the signs of bacterial growth in the same well at previous time point(s).
Algorithm #2. Lab technician analyzed the appearance of bacterial growth by comparing the signs of bacterial growth in each well supplemented with antibiotic(s) with bacterial growth in antibiotic-free control

[7] = Patient 1, C0-1 h, 24 h of growth
[8] = Patient 1, C0-2 h, 24 h of growth
[9] = Patient 1, C0-3 h, 24 h of growth
[10] = Patient 1, C0-4 h, 24 h of growth
[11] = Patient 1, C0-6 h, 24 h of growth
[12] = Patient 1, C0-8 h, 24 h of growth
[13] = Patient 1, C0-12 h, 24 h of growth
[14] = Patient 1, C0-24 h, 24 h of growth
[15] = Patient 1, C2-3 h, 24 h of growth
[16] = Patient 1, C3-4 h, 24 h of growth
[17] = Patient 1, C4-6 h, 24 h of growth
[18] = Patient 1, C6-8 h, 24 h of growth
[19] = Patient 1, C8-12 h, 24 h of growth
[20] = Patient 1, C12-24 h, 24 h of growth
[21] = Patient 1, Cmax × 2, 24 h of growth
[22] = Patient 2, C0-3 h, 24 h of growth
[23] = Patient 2, C0-4 h, 24 h of growth
[24] = Patient 2, C0-6 h, 24 h of growth
[25] = Patient 2, C0-8 h, 24 h of growth
[26] = Patient 2, C0-12 h, 24 h of growth
[27] = Patient 2, C0-24 h, 24 h of growth
[28] = Patient 2, C3-4 h, 24 h of growth
[29] = Patient 2, C4-6 h, 24 h of growth
[30] = Patient 2, C6-8 h, 24 h of growth
[31] = Patient 2, C8-12 h, 24 h of growth
[32] = Patient 2, C12-24 h, 24 h of growth
[33] = Patient 3, C0-3 h, 24 h of growth
[34] = Patient 3, C0-4 h, 24 h of growth
[35] = Patient 3, C0-6 h, 24 h of growth
[36] = Patient 3, C0-8 h, 24 h of growth
[37] = Patient 3, C0-12 h, 24 h of growth
[38] = Patient 3, C0-24 h, 24 h of growth
[39] = Patient 3, C3-4 h, 24 h of growth
[40] = Patient 3, C4-6 h, 24 h of growth
[41] = Patient 3, C6-8 h, 24 h of growth
[42] = Patient 3, C8-12 h, 24 h of growth
[43] = Patient 3, C12-24 h, 24 h of growth

Compound: CC1=C(C(=O)O)N2C(=O)[C@@H](NC(=O)[C@H](N)c3ccccc3)[C@H]2SC1 [Cephalexin]
- activity against Pseudomonas aeruginosa according to standard micro-broth dilution method [1]: not active

Compound: C[C@H]1COc2c(N3CCN(C)CC3)c(F)cc3c(=O)c(C(=O)O)cn1c23 [Levofloxacin]
- Degree of primary pathogen eradication, evaluation of ABEPP [2, 7]: 100
- Degree of primary pathogen eradication, evaluation of ABEPPMM [2, 7]: 99
- Degree of primary pathogen eradication, evaluation of ABEPP [2, 8]: 99
- Degree of primary pathogen eradication, evaluation of ABEPPMM [2, 8]: 99
- Degree of primary pathogen eradication, evaluation of ABEPP [2, 9]: 90
- Degree of primary pathogen eradication, evaluation of ABEPPMM [2, 9]: 90
- Degree of primary pathogen eradication, evaluation of ABEPP [2, 10]: 100
- Degree of primary pathogen eradication, evaluation of ABEPPMM [2, 10]: 100
- Degree of primary pathogen eradication, evaluation of ABEPP [2, 11]: 100
- Degree of primary pathogen eradication, evaluation of ABEPPMM [2, 11]: 100
- Degree of primary pathogen eradication, evaluation of ABEPP [2, 12]: 50
- Degree of primary pathogen eradication, evaluation of ABEPPMM [2, 12]: 50
- Degree of primary pathogen eradication, evaluation of ABEPP [2, 13]: 50
- Degree of primary pathogen eradication, evaluation of ABEPPMM [2, 13]: 50
- Degree of primary pathogen eradication, evaluation of ABEPP [2, 14]: 0
- Degree of primary pathogen eradication, evaluation of ABEPPMM [2, 14]: 0
- Degree of primary pathogen eradication, evaluation of ABEPP [2, 15]: 90
- Degree of primary pathogen eradication, evaluation of ABEPPMM [2, 15]: 90
- Degree of primary pathogen eradication, evaluation of ABEPP [2, 16]: 99
- Degree of primary pathogen eradication, evaluation of ABEPPMM [2, 16]: 99
- Degree of primary pathogen eradication, evaluation of ABEPP [2, 17]: 100
- Degree of primary pathogen eradication, evaluation of ABEPPMM [2, 17]: 100
- Degree of primary pathogen eradication, evaluation of ABEPP [2, 18]: 90
- Degree of primary pathogen eradication, evaluation of ABEPPMM [2, 18]: 90
- Degree of primary pathogen eradication, evaluation of ABEPP [2, 19]: 50
- Degree of primary pathogen eradication, evaluation of ABEPPMM [2, 19]: 50
- Degree of primary pathogen eradication, evaluation of ABEPP [2, 20]: 50
- Degree of primary pathogen eradication, evaluation of ABEPPMM [2, 20]: 50
- Degree of primary pathogen eradication, evaluation of ABEPP [2, 21]: 100
- Degree of primary pathogen eradication, evaluation of ABEPPMM [2, 21]: 99
- Degree of primary pathogen eradication, evaluation of ABEPP [2, 22]: 50
- Degree of primary pathogen eradication, evaluation of ABEPPMM [2, 22]: 50
- Degree of primary pathogen eradication, evaluation of ABEPP [2, 23]: 50
- Degree of primary pathogen eradication, evaluation of ABEPPMM [2, 23]: 50
- Degree of primary pathogen eradication, evaluation of ABEPP [2, 24]: 50
- Degree of primary pathogen eradication, evaluation of ABEPPMM [2, 24]: 50
- Degree of primary pathogen eradication, evaluation of ABEPP [2, 25]: 50
- Degree of primary pathogen eradication, evaluation of ABEPPMM [2, 25]: 50
- Degree of primary pathogen eradication, evaluation of ABEPP [2, 26]: 50
- Degree of primary pathogen eradication, evaluation of ABEPPMM [2, 26]: 0
- Degree of primary pathogen eradication, evaluation of ABEPP [2, 27]: 0
- Degree of primary pathogen eradication, evaluation of ABEPPMM [2, 27]: 0
- Degree of primary pathogen eradication, evaluation of ABEPP [2, 28]: 50
- Degree of primary pathogen eradication, evaluation of ABEPPMM [2, 28]: 50
- Degree of primary pathogen eradication, evaluation of ABEPP [2, 29]: 50
- Degree of primary pathogen eradication, evaluation of ABEPPMM [2, 29]: 50
- Degree of primary pathogen eradication, evaluation of ABEPP [2, 30]: 50
- Degree of primary pathogen eradication, evaluation of ABEPPMM [2, 30]: 50
- Degree of primary pathogen eradication, evaluation of ABEPP [2, 31]: 50
- Degree of primary pathogen eradication, evaluation of ABEPPMM [2, 31]: 0
- Degree of primary pathogen eradication, evaluation of ABEPP [2, 32]: 0
- Degree of primary pathogen eradication, evaluation of ABEPPMM [2, 32]: 0
- Degree of primary pathogen eradication, evaluation of ABEPP [2, 33]: 50
- Degree of primary pathogen eradication, evaluation of ABEPPMM [2, 33]: 50
- Degree of primary pathogen eradication, evaluation of ABEPP [2, 34]: 50
- Degree of primary pathogen eradication, evaluation of ABEPPMM [2, 34]: 0
- Degree of primary pathogen eradication, evaluation of ABEPP [2, 35]: 0
- Degree of primary pathogen eradication, evaluation of ABEPPMM [2, 35]: 0
- Degree of primary pathogen eradication, evaluation of ABEPP [2, 36]: 0
- Degree of primary pathogen eradication, evaluation of ABEPPMM [2, 36]: 0
- Degree of primary pathogen eradication, evaluation of ABEPP [2, 37]: 0
- Degree of primary pathogen eradication, evaluation of ABEPPMM [2, 37]: 0
- Degree of primary pathogen eradication, evaluation of ABEPP [2, 38]: 0
- Degree of primary pathogen eradication, evaluation of ABEPPMM [2, 38]: 0
- Degree of primary pathogen eradication, evaluation of ABEPP [2, 39]: 50
- Degree of primary pathogen eradication, evaluation of ABEPPMM [2, 39]: 50
- Degree of primary pathogen eradication, evaluation of ABEPP [2, 40]: 0
- Degree of primary pathogen eradication, evaluation of ABEPPMM [2, 40]: 0
- Degree of primary pathogen eradication, evaluation of ABEPP [2, 41]: 0
- Degree of primary pathogen eradication, evaluation of ABEPPMM [2, 41]: 0
- Degree of primary pathogen eradication, evaluation of ABEPP [2, 42]: 0
- Degree of primary pathogen eradication, evaluation of ABEPPMM [2, 42]: 0
- Degree of primary pathogen eradication, evaluation of ABEPP [2, 43]: 0
- Degree of primary pathogen eradication, evaluation of ABEPPMM [2, 43]: 0
- lung concentration after 3 h of administration [3]: 4.7 µg/mL

Compound: CN[C@H](CC(C)C)C(=O)N[C@H]1C(=O)N[C@@H](CC(N)=O)C(=O)N[C@H]2C(=O)N[C@H]3C(=O)N[C@H](C(=O)N[C@H](C(=O)O)c4cc(O)cc(O)c4-c4cc3ccc4O)[C@H](O)c3ccc(c(Cl)c3)Oc3cc2cc(c3O[C@@H]2O[C@H](CO)[C@@H](O)[C@H](O)[C@H]2O[C@H]2C[C@](C)(N)[C@H](O)[C@H](C)O2)Oc2ccc(cc2Cl)[C@H]1O [Vancomycin]
- ATB efficacy [4]: −
- activity against Pseudomonas aeruginosa according to standard micro-broth dilution method [1]: not active
- Number of animals with positive microbial growth on the agar with antibiotics/total number of animals per group ([5]; Blood): 6/8
- Number of animals with positive microbial growth on the agar with antibiotics/total number of animals per group ([5]; Liver): 5/8
- Number of animals with positive microbial growth on the agar with antibiotics/total number of animals per group ([5]; Lungs): 8/8
- ATB efficacy ([6]; Algorithm #1, antibiotic at C0-4 h): +
- ATB efficacy ([6]; Algorithm #1, antibiotic at Cmax): −
- ATB efficacy ([6]; Algorithm #2, antibiotic at C0-4 h): +
- ATB efficacy ([6]; Algorithm #2, antibiotic at Cmax): −
